Laboratory results from patent US8637537B2, “Serine/threonine kinase inhibitors” (Genentech, Inc., priority 2011, dated 2014).

target: T1, human recombinant GST-PAK1-KD protein (Homo sapiens, UniProt Q13153); assay: GST-PAK1-KD (kinase domain) biochemical assay, microfluidic mobility shift; settings: Table II, PAK1 Ki class; read-out: Ki
T1 construct: residues #249-545 of human PAK1, UniProtKP/Swiss Q13153; His6 (N); made in house; host or cells: Sf9 insect cells, pAcGP67 baculovirus expression vector
T1 sequence (Q13153 249-545): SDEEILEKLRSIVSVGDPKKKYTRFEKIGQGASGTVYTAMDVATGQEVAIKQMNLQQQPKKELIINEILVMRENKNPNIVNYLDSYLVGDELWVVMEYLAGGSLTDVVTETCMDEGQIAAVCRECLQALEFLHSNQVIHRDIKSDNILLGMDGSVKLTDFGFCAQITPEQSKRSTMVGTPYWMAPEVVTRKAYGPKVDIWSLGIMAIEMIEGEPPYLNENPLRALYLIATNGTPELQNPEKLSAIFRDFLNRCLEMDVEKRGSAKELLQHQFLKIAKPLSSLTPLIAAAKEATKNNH

Structure (SMILES)	Ki [nM]
Fc1cc(CNc2nccc(Nc3cc([C@@H]4CC4(F)F)[nH]n3)n2)c2cn[nH]c2c1 [II-65, (S)-N^4-(5-(2,2-difluorocyclopropyl)-1H-pyrazol-3-yl)-N^2-((6-fluoro-1H-indazol-4-yl)methyl)pyrimidine-2,4-diamine]	< 50
OCCN(Cc1cc(F)cc2[nH]ncc12)c1nccc(Nc2cc(C3CC3)[nH]n2)n1 [II-66, 2-((4-((5-cyclopropyl-1H-pyrazol-3-yl)amino)pyrimidin-2-yl)((6-fluoro-1H-indazol-4-yl)methyl)anino)ethanol]	< 50
C[C@@H](O)CN(Cc1cc(F)cc2[nH]ncc12)c1nccc(Nc2cc(C3CC3)[nH]n2)n1 [II-67, (R)-1-((4-((5-cyclopropyl-1H-pyrazol-3-yl)amino)pyrimidin-2-yl)((6-fluoro-1H-indazol-4-yl)methyl)amino)propan-2-ol]	< 50
CCc1cc(Nc2nc(N(C)Cc3ccc4[nH]cnc4c3Cl)ncc2F)n[nH]1 [II-69, N^2-((4-chloro-1H-benzo[d]imidazol-5-yl)methyl)-N^4-(5-ethyl-1H-pyrazol-3-yl)-5-fluoro-N^2-methylpyrimidine-2,4-diamine]	250 to 1000
CCN(Cc1cc(F)cc2[nH]ncc12)c1nccc(Nc2cc(C3CC3)[nH]n2)n1 [II-70, N^4-(5-cyclopropyl-1H-pyrazol-3-yl)-N^2-ethyl-N^2-((6-fluoro-1H-indazol-4-yl)methyl)pyrimidine-2,4-diamine]	< 50
C[C@H](Nc1ncc(F)c(Nc2cc(C3CC3)[nH]n2)n1)c1cc(F)cc2[nH]ncc12 [II-71, (S)-N^4-(5-cyclopropyl-1H-pyrazol-3-yl)-5-fluoro-N^2-(1-(6-fluoro-1H-indazol-4-yl)ethyl)pyrimidine-2,4-diamine]	< 50
C[C@H](O)CN(Cc1cc(F)cc2[nH]ncc12)c1nccc(Nc2cc(C3CC3)[nH]n2)n1 [II-72, (S)-1-((4-((5-cyclopropyl-1H-pyrazol-3-yl)amino)pyrimidin-2-yl)((6-fluoro-1H-indazol-4-yl)methyl)amino)propan-2-ol]	< 50
Fc1ccc2[nH]ncc2c1CNc1nccc(Nc2cc(C3CC3)[nH]n2)n1 [II-75, N^4-(5-cyclopropyl-1H-pyrazol-3-yl)-N^2-((5-fluoro-1H-indazol-4-yl)methyl)pyrimidine-2,4-diamine]	< 50
Cc1cc(Nc2ccnc(N(C)Cc3ccc4[nH]cnc4c3Cl)n2)n[nH]1 [II-76, N^2-((4-chloro-1H-benzo[d]imidazol-5-yl)methyl)-N^2-methyl-N^4-(5-methyl-1H-pyrazol-3-yl)pyrimidine-2,4-diamine]	< 50
OCCN(Cc1cccc2[nH]ncc12)c1nccc(Nc2cc(C3CC3)[nH]n2)n1 [II-77, 2-(((1H-indazol-4-yl)methyl)(4-((5-cyclopropyl-1H-pyrazol-3-yl)amino)pyrimidin-2-yl)amino)ethanol]	< 50
c1cc(Nc2cc(C3CC3)[nH]n2)nc(N(Cc2ccc3[nH]cnc3c2)C2CC2)n1 [II-78, N^2-((1H-benzo[d]imidazol-5-yl)methyl)-N^2-cyclopropyl-N^4-(5-cyclopropyl-1H-pyrazol-3-yl)pyrimidine-2,4-diamine]	< 50
C[C@H](c1cc(Nc2ccnc(NCc3ccc4[nH]cnc4c3Cl)n2)n[nH]1)C1CC1 [II-79, (S)-N^2-((4-chloro-1H-benzo[d]imidazol-5-yl)methyl)-N^4-(5-(1-cyclopropylethyl)-1H-pyrazol-3-yl)pyrimidine-2,4-diamine]	< 50
COC[C@@H](C)c1cc(Nc2ccnc(N(C)Cc3ccc4[nH]cnc4c3Cl)n2)n[nH]1 [II-80, (S)-N^2-((4-chloro-1H-benzo[d]imidazol-5-yl)methyl)-N^4-(5-(1-methoxypropan-2-yl)-1H-pyrazol-3-yl)-N^2-methylpyrimidine-2,4-diamine]	< 50
Fc1cc(CNc2nccc(Nc3cc([C@H]4C[C@@H]4F)[nH]n3)n2)c2cc[nH]c2c1 [II-82, N^2-((6-fluoro-1H-indol-4-yl)methyl)-N^4-(5-((1R,2S)-2-fluorocyclopropyl)-1H-pyrazol-3-yl)pyrimidine-2,4-diamine]	< 50
CN(C)CCN(Cc1cccc2[nH]ccc12)c1nccc(Nc2cc([C@@H]3C[C@H]3F)[nH]n2)n1 [II-83, N^2-((1H-indol-4-yl)methyl)-N^2-(2-(dimethylamino)ethyl)-N^4-(5-((1S,2R)-2-fluorocyclopropyl)-1H-pyrazol-3-yl)pyrimidine-2,4-diamine]	< 50
CN(Cc1cccc2[nH]ncc12)c1nccc(Nc2cc(C3CC3)[nH]n2)n1 [II-84, N^2-((1H-indazol-4-yl)methyl)-N^4-(5-cyclopropyl-1H-pyrazol-3-yl)-N^2-methylpyrimidine-2,4-diamine]	< 50
CCN(Cc1cc(F)cc2[nH]ncc12)c1ncc(F)c(Nc2cc(C3CC3)[nH]n2)n1 [II-85, N^4-(5-cyclopropyl-1H-pyrazol-3-yl)-N^2-ethyl-5-fluoro-N^2-((6-fluoro-1H-indazol-4-yl)methyl)pyrimidine-2,4-diamine]	< 50

Structure (SMILES)	Ki [nM]
CN(C)CCN(Cc1cc(F)cc2[nH]ncc12)c1ncc(F)c(Nc2cc(C3CC3)[nH]n2)n1 [II-86, N^4-(5-cyclopropyl-1H-pyrazol-3-yl)-N^2-(2-(dimethylamino)ethyl)-5-fluoro-N^2-((6-fluoro-1H-indazol-4-yl)methyl)pyrimidine-2,4-diamine]	< 50
CCN(Cc1cccc2[nH]ncc12)c1ncc(F)c(Nc2cc(C3CC3)[nH]n2)n1 [II-87, N^2-((1H-indazol-4-yl)methyl)-N^4-(5-cyclopropyl-1H-pyrazol-3-yl)-N^2-ethyl-5-fluoropyrimidine-2,4-diamine]	< 50
CN(C)CCN(Cc1cccc2[nH]ccc12)c1nccc(Nc2cc([C@H]3C[C@@H]3F)[nH]n2)n1 [II-88, N^2-((1H-indol-4-yl)methyl)-N^2-(2-(dimethylamino)ethyl)-N^4-(5-((1R,2S)-2-fluorocyclopropyl)-1H-pyrazol-3-yl)pyrimidine-2,4-diamine]	< 50
CN(C)CCN(Cc1cccc2[nH]ccc12)c1nccc(Nc2cc(C3CC3)[nH]n2)n1 [II-89, N^2-((1H-indol-4-yl)methyl)-N^4-(5-cyclopropyl-1H-pyrazol-3-yl)-N^2-(2-(dimethylamino)ethyl)-pyrimidine-2,4-diamine]	< 50
c1cc(Nc2cc(C3CC3)[nH]n2)nc(N(Cc2ccc3[nH]cnc3c2)C2CCNCC2)n1 [II-90, N^2-((1H-benzo[d]imidazol-5-yl)methyl)-N^4-(5-cyclopropyl-1H-pyrazol-3-yl)-N^2-(piperidin-4-yl)pyrimidine-2,4-diamine]	< 50
Cc1cc(Nc2nc(N(C)Cc3ccc4[nH]cnc4c3Cl)ncc2F)n[nH]1 [II-91, N^2-((4-chloro-1H-benzo[d]imidazol-5-yl)methyl)-5-fluoro-N^2-methyl-N^4-(5-methyl-1H-pyrazol-3-yl)pyrimidine-2,4-diamine]	< 50
CCN(Cc1cc(F)cc2[nH]ncc12)c1nccc(Nc2cc([C@H](C)C3CC3)[nH]n2)n1 [II-92, (R)-N^4-(5-(1-cyclopropylethyl)-1H-pyrazol-3-yl)-N^2-ethyl-N^2((6-fluoro-1H-indazol-4-yl)methyl)pyrimidine-2,4-diamine]	< 50
CN(Cc1cccc2[nH]ncc12)c1ncc(F)c(Nc2cc(C3CC3)[nH]n2)n1 [II-93, N^2-((1H-indazol-4-yl)methyl)-N^4-(5-cyclopropyl-1H-pyrazol-3-yl)-5-fluoro-N^2-methylpyrimidine-2,4-diamine]	< 50
CO[C@@H](C)CN(Cc1cc(F)cc2[nH]ncc12)c1nccc(Nc2cc(C3CC3)[nH]n2)n1 [II-95, (S)-N^4-(5-cyclopropyl-1H-pyrazol-3-yl)-N^2-((6-fluoro-1H-indazol-4-yl)methyl)-N^2-(2-methoxypropyl)pyrimidine-2,4-diamine]	< 50
CC(C)N(Cc1cc(F)cc2[nH]ncc12)c1ncc(F)c(Nc2cc(C3CC3)[nH]n2)n1 [II-96, N^4-(5-cyclopropyl-1H-pyrazol-3-yl)-5-fluoro-N^2-((6-fluoro-1H-indazol-4-yl)methyl)-N^2-isopropylpyrimidine-2,4-diamine]	< 50
COc1cc(CNc2ncc(F)c(Nc3cc(C4CC4)[nH]n3)n2)c2cn[nH]c2c1 [II-98, N^4-(5-cyclopropyl-1H-pyrazol-3-yl)-5-fluoro-N^2-((6-methoxy-1H-indazol-4-yl)methyl)pyrimidine-2,4-diamine]	< 50
FC(F)(F)c1cc(CNc2nccc(Nc3cc(C4CC4)[nH]n3)n2)c2cn[nH]c2c1 [II-99, N^4-(5-Cyclopropyl-1H-pyrazol-3-yl)-N^2-((6-(trifluoromethyl)-1H-indazol-4-yl)methyl)pyrimidine-2,4-diamine]	< 50
CN(Cc1c(F)ccc2[nH]ncc12)c1nccc(Nc2cc(C3CC3)[nH]n2)n1 [II-100, N^4-(5-cyclopropyl-1H-pyrazol-3-yl)-N^2-((5-fluoro-1H-indazol-4-yl)methyl)-N^2-methylpyrimidine-2,4-diamine]	< 50
Fc1cc(CNc2ncc(F)c(Nc3cc([C@@H]4CC4(F)F)[nH]n3)n2)c2cn[nH]c2c1 [II-101, (S)-N^4-(5-(2,2-difluorocyclopropyl)-1H-pyrazol-3-yl)-5-fluoro-N^2-((6-fluoro-1H-indazol-4-yl)methyl)pyrimidine-2,4-diamine]	50 to 250
CN(Cc1ccc2[nH]cnc2c1)c1ncc(F)c(Nc2cc(C3CC3)[nH]n2)n1 [II-103, N^2-((1H-benzo[d]imidazol-5-yl)methyl)-N^4-(5-cyclopropyl-1H-pyrazol-3-yl)-5-fluoro-N^2-methylpyrimidine-2,4-diamine]	50 to 250
CCN(Cc1ccc2[nH]cnc2c1)c1ncc(F)c(Nc2cc(C3CC3)[nH]n2)n1 [II-104, N^2-((1H-benzo[d]imidazol-5-yl)methyl)-N^4-(5-cyclopropyl-1H-pyrazol-3-yl)-N^2-ethyl-5-fluoropyrimidine-2,4-diamine]	50 to 250
CN(C)CCN(Cc1ccc2[nH]cnc2c1)c1nccc(Nc2cc(C3CC3)[nH]n2)n1 [II-105, N^2-((1H-benzo[d]imidazol-5-yl)methyl)-N^4-(5-cyclopropyl-1H-pyrazol-3-yl)-N^2-(2-(dimethylamino)ethyl)pyrimidine-2,4-diamine]	50 to 250
